Data published in the supplement of paper PMC10307832.

Assays:
Assay in all cases: relative viability (nuclei count vs DMSO), 5 days (fraction); higher = more cells survive
Palbociclib + Pictilisib = compound: CC(=O)c1c(C)c2cnc(Nc3ccc(N4CCNCC4)cn3)nc2n(C2CCCC2)c1=O [Palbociclib] + CS(=O)(=O)N1CCN(Cc2cc3nc(-c4cccc5[nH]ncc45)nc(N4CCOCC4)c3s2)CC1 [Pictilisib] (partner 1 µM)
Summary of the method: (§1)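 Lung cancer cell lines, seeded in 1536-well plates, were treated the following day by pin tool with a single drug or with five library-drug doses (not always all listed) in √10 steps on top of a fixed anchor-drug dose. Cells were fixed and nuclei stained in one step after 5 days, and nuclei were counted. Relative viability is the nuclei count for treated wells divided by that for vehicle wells, reported as medians of duplicate plates.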

Palbociclib + Tozasertib = compound: CC(=O)c1c(C)c2cnc(Nc3ccc(N4CCNCC4)cn3)nc2n(C2CCCC2)c1=O [Palbociclib] + Cc1cc(Nc2cc(N3CCN(C)CC3)nc(Sc3ccc(NC(=O)C4CC4)cc3)n2)n[nH]1 [Tozasertib] (partner 0.1 µM)
Summary of the method: as §1

Palbociclib + Decitabine = compound: CC(=O)c1c(C)c2cnc(Nc3ccc(N4CCNCC4)cn3)nc2n(C2CCCC2)c1=O [Palbociclib] + Nc1ncn([C@H]2C[C@H](O)[C@@H](CO)O2)c(=O)n1 [Decitabine] (partner 2 µM)
Summary of the method: as §1

Palbociclib + Pemetrexed = compound: CC(=O)c1c(C)c2cnc(Nc3ccc(N4CCNCC4)cn3)nc2n(C2CCCC2)c1=O [Palbociclib] + Nc1nc2[nH]cc(CCc3ccc(C(=O)N[C@@H](CCC(=O)O)C(=O)O)cc3)c2c(=O)[nH]1 [Pemetrexed] (partner 0.2 µM)
Summary of the method: as §1

Cell Line	relative viability (Palbociclib + Pictilisib; first compound 0.01 µM)	relative viability (Palbociclib + Pictilisib; first compound 0.1 µM)	relative viability (Palbociclib + Pictilisib; first compound 0.3162 µM)	relative viability (Palbociclib + Pictilisib; first compound 1 µM)	relative viability (Palbociclib + Tozasertib; first compound 0.01 µM)	relative viability (Palbociclib + Tozasertib; first compound 0.1 µM)	relative viability (Palbociclib + Tozasertib; first compound 0.3162 µM)	relative viability (Palbociclib + Tozasertib; first compound 1 µM)	relative viability (Palbociclib + Decitabine; first compound 0.01 µM)	relative viability (Palbociclib + Decitabine; first compound 0.03162 µM)	relative viability (Palbociclib + Decitabine; first compound 0.1 µM)	relative viability (Palbociclib + Decitabine; first compound 0.3162 µM)	relative viability (Palbociclib + Decitabine; first compound 1 µM)	relative viability (Palbociclib + Pemetrexed; first compound 0.01 µM)	relative viability (Palbociclib + Pemetrexed; first compound 0.03162 µM)	relative viability (Palbociclib + Pemetrexed; first compound 0.1 µM)	relative viability (Palbociclib + Pemetrexed; first compound 0.3162 µM)	relative viability (Palbociclib + Pemetrexed; first compound 1 µM)	relative viability (Palbociclib + Pictilisib; first compound 0.03162 µM)	relative viability (Palbociclib + Tozasertib; first compound 0.03162 µM)
NCI-H23	0.575	0.362	0.36	0.205	0.335	0.381	0.378	0.412	0.28	0.341	0.283	0.362	0.33	0.596	0.694	0.492	0.67	0.443		
NCI-H322M	0.474	0.459	0.393	0.34	0.471	0.403	0.412	0.343	0.691	0.654	0.674	0.654	0.521	0.604	0.499	0.651	0.573	0.362	0.495	0.448
NCI-H358	0.277	0.185	0.213	0.155	0.0961	0.096	0.0791	0.0679	0.209	0.203	0.206	0.186	0.143	0.167	0.163	0.166	0.186	0.135	0.189	0.087
NCI-H441	0.559	0.406	0.304	0.191	0.689	0.577	0.446	0.373	0.22	0.244	0.241	0.241	0.236	0.276	0.266	0.258	0.236	0.257	0.317	0.739
NCI-H460	0.465	0.268	0.318	0.182	0.33	0.563	0.486	0.467	0.432	0.415	0.503	0.46	0.264	0.0576	0.0539	0.0631	0.0663	0.057	0.302	0.0915
NCI-H520	0.283	0.229	0.213	0.229	0.445	0.238	0.329	0.249	0.491	0.417	0.423	0.395	0.29	0.636	0.573	0.554	0.331	0.267	0.201	0.424
NCI-H596	0.379	0.385	0.397	0.387	0.951	1	0.935	0.965	1.15	0.973	1.05	0.945	1.22	0.514	0.617	0.514	0.52	0.497	0.422	
NCI-H647	0.423	0.275	0.307	0.278	0.272	0.266	0.465	0.435	0.408	0.315	0.356	0.392	0.337	0.167	0.171	0.2	0.179	0.188		0.286
NCI-H650	1.02	0.364	0.659	0.489	0.784	0.639	0.588	0.576	0.305		0.31	0.306	0.354	0.946		0.7	0.725	0.483		0.378
